Measurements from paper PMC10142183, “Optimization of polymyxin B regimens for the treatment of carbapenem-resistant organism nosocomial pneumonia: a real-world prospective study” (Critical Care, 2023).
Positions of bridges follow the written chain, without caps; N, C: chain ends. Non-standard residues stand in square brackets, D forms with d. Residues, ends and D or L forms follow the SMILES beside them. *: point of attachment. X1 = CC[C@H](C)CCCCC(=O)*; Dab = NCC[C@H](N)C(=O)O

Assays:
[1] = Population PK model and plasma exposure in critically ill patients (HPLC-MS/MS, Phoenix NLME); type: in vivo, human; set-up: AUCss, 24h: concentration or dose not given beside the values
Method: Polymyxin B was given to all patients empirically as a loading dose of 100–200 mg followed by a maintenance dose of 40–100 mg every 12 h for at least 3 days. The infusion time was at least 1 h. Aerosol delivery of polymyxin B (25 mg or 50 mg twice daily) was using a vibrating mesh nebulizer, synchronized with the inspiratory cycle of the ventilator. Two to six blood samples (2 mL) were randomly collected immediately before the seventh dose of polymyxin B and at 0, 1, 2, 4, 6, 8 and 10 h after the end of infusion. The supernatant was immediately stored at − 80 °C until analysis.
An established high-performance liquid chromatography-tandem mass spectrometry (HPLC–MS/MS) was used to measure the concentrations of polymyxin B1 and polymyxin B2 as described previously by the authors’ laboratory (The total concentration of polymyxin B = [polymyxin B1 concentration/polymyxin B1 molecular + polymyxin B2 concentration/polymyxin B2 molecular]*total polymyxin B molecular). The interday precision was < 12%, the intraday precision was < 9%, and the accuracy ranged from 96.1 to 110.4%. The limit of quantification (LLOD) was 0.03 mg/L, and all of the polymyxin B concentrations detected were over LLOD.
The Phoenix NLME program (version 8.1. Pharsight, A Certara Company, USA) with the method of first-order conditional estimation-extended least square method (FOCE-ELS) was used to develop the population PK model by analyzing polymyxin B concentration. The objective function value (OFV), goodness-of-fit plots and the reasonable of population PK parameters were used to selection of the structure model. The stepwise covariate modeling (SCM) approach was used to test the covariate model in this analysis; age, sex, body weight, alanine aminotransferase (ALT), aspartate aminotransferase (AST), total bilirubin (TBIL), direct bilirubin (DBIL), serum albumin (ALB) and CrCL were evaluated as the covariates. The SCM consists of a forward selection step (the criterion is p < 0.05 for ΔOFV decreased ≥ 3.84) and a backward elimination step (the criterion is p < 0.001 for ΔOFV increased ≥ 10.83). In addition, the goodness-of-fit plots were used to assess the validity of the population PK model, the prediction-corrected visual predictive check (pcVPC) was used to assess the predictive performance of the key models. The bootstrap method was used to assess the accuracy.
The PK/PD indices included AUCss,24 h, AUCss,24 h/MIC, the peak and trough concentration at steady state (Cmax,ss and Cmin,ss), Cmax,ss /MIC and Cmin,ss /MIC. AUCss,24 h, Cmax,ss and Cmin,ss were calculated based on the empirical Bayesian (EBEs). For those patients with more than one baseline pathogen, AUCss,24 h/MIC, Cmax,ss /MIC and Cmin,ss /MIC evaluations were based on the pathogen with the highest MIC value.

CRO nosocomial pneumonia [2] = experiment: PK/PD analysis for clinical efficacy in CRO nosocomial pneumonia; type: in vivo, human
Method: This prospective study was conducted at two intensive care units (ICU) between January 2020 and December 2021 in the Second Xiangya Hospital of Central South University (Changsha, China). […] The exclusion criteria were as follows: (a) concomitant lung cancer with obstructive pneumonitis or cystic fibrosis; (b) solid organ transplantation; (c) hematologic malignancies and hematopoietic cell transplant recipients; (d) receiving renal replacement therapy. HAP was defined according to the 2016 clinical practice guidelines of the Infectious Diseases Society of America and the American Thoracic Society. Determination of carbapenem susceptibility of CRO was followed by the European Committee on Antimicrobial Susceptibility Testing (EUCAST). Updated EUCAST Clinical Breakpoints of polymyxin B were sensitivity (S ≤ 2 mg/L) and drug resistance (R > 2 mg/L). The antimicrobial susceptibility testing was performed using the VITEK-2 Compact system with VITEK cards (0.5–16 mg/L for colistin) (bioMérieux, France). The following information was extracted from the electronic medical records: demographic and co-morbidity profiles, clinical and microbiological features of the infections, and the antimicrobial treatment regimens. Creatinine clearance (CrCL) was calculated using the Cockcroft–Gault equation. The endpoint was clinical efficacy and 30-day all-cause mortality. Assessment of clinical efficacy was conducted at the end of treatment, and 30-day mortality was recorded from the start of polymyxin B treatment. This prospective study was approved by the Ethics Committee of the Second Xiangya Hospital, Central South University. Informed consent was obtained from all patients or legal representatives of the patients (No. ChiCTR1900022231).
Clinical outcomes were classified as clinical success (CS) and clinical failure (CF), and were assessed by two physicians. CS was defined as a composite of survival; hemodynamic stability; body temperature < 38 °C, improved biochemistry indicators of infection; stable or improved PaO2/FiO2 ratio. Additionally, for patients with bacteremia, microbiological cure (no growth of the initial isolate in blood cultures) must be achieved by the end of the treatment. […] 30-day all-cause mortality was recorded from the start of polymyxin B treatment.
Variables potentially related to clinical efficacy and 30-day all-cause mortality were assessed, including: demographics, co-morbidities, clinical conditions, dosage regimen and concentration of polymyxin B. To develop receiver operating characteristic (ROC) curves, the PK/PD indices AUCss,24 h/MIC, Cmax,ss/MIC and Cmin,ss/MIC were used as predictors of clinical efficacy. The area under the diagnostic curve (AUCROC) was calculated to evaluate the correlation of the above parameters with clinical efficacy and 30-day all-cause mortality. Youden index of the ROC curves was calculated by "sensitivity + specificity-1", and the values corresponding to the maximum Youden index is the optimal cutoff point value of the PK/PD indices.
Statistical analysis was performed with SPSS 24.0 (SPSS, IBM Company, Chicago, IL, USA) software. Continuous variables are presented as the mean ± standard deviation (SD) if normally distributed and were compared using Student’s t tests. The median and interquartile range (IQR) are presented for abnormally distributed data, and the Mann–Whitney U test was used. Categorical variables are expressed as counts and percentages, and the chi-square test or Fisher’s exact test was used. Spearman’s rank correlation coefficient (r) was used to analyze the correlation between Cmin,ss, Cmax,ss and AUCss,24 h. Univariate analysis was performed for all variables to identify possible predictors for clinical efficacy. Variables with a p < 0.05 were entered into the multivariate logistic regression models. […]

CRO nosocomial pneumonia [3] = experiment: 30-day all-cause mortality in CRO nosocomial pneumonia; type: in vivo, human; details: Cox regression, p = 0.001
Method: This prospective study was conducted at two intensive care units (ICU) between January 2020 and December 2021 in the Second Xiangya Hospital of Central South University (Changsha, China). […] The exclusion criteria were as follows: (a) concomitant lung cancer with obstructive pneumonitis or cystic fibrosis; (b) solid organ transplantation; (c) hematologic malignancies and hematopoietic cell transplant recipients; (d) receiving renal replacement therapy. HAP was defined according to the 2016 clinical practice guidelines of the Infectious Diseases Society of America and the American Thoracic Society. Determination of carbapenem susceptibility of CRO was followed by the European Committee on Antimicrobial Susceptibility Testing (EUCAST). […] Creatinine clearance (CrCL) was calculated using the Cockcroft–Gault equation. […] Assessment of clinical efficacy was conducted at the end of treatment, and 30-day mortality was recorded from the start of polymyxin B treatment. […]
Clinical outcomes were classified as clinical success (CS) and clinical failure (CF), and were assessed by two physicians. […] 30-day all-cause mortality was recorded from the start of polymyxin B treatment. […]
Statistical analysis was performed with SPSS 24.0 (SPSS, IBM Company, Chicago, IL, USA) software. […] Categorical variables are expressed as counts and percentages, and the chi-square test or Fisher’s exact test was used. […]

[4] = critically ill patients; weight-based regimen 1.25-1.5 mg/kg every 12 h; cited from earlier work
Method: At present, weight-based dosing regimen (1.25–1.5 mg/kg every 12 h) is recommended for polymyxin B [17, 18]. However, polymyxin B concentration varies widely in critically ill patients with this regimen, and almost 30% patients cannot achieve AUCss,24 h values within the target therapeutic window. […] Due to these inconsistent results, further research is needed to improve the charac ...

[5] = 30-day non-survival group (n = 28), median (IQR)
[6] = 30-day survival group (n = 77), median (IQR)
[7] = clinical failure group (n = 35), median (IQR)
[8] = clinical success group (n = 70), median (IQR)
[9] = final model estimate, two-compartment population PK, 105 patients, 295 plasma concentrations
[10] = median of 105 patients, plasma, empirical Bayesian estimates

## CC[C@H](C)CCCCC(=O)N[C@@H](CCN)C(=O)N[C@H](C(=O)N[C@@H](CCN)C(=O)N[C@H]1CCNC(=O)[C@H]([C@@H](C)O)NC(=O)[C@H](CCN)NC(=O)[C@H](CCN)NC(=O)[C@H](CC(C)C)NC(=O)[C@@H](Cc2ccccc2)NC(=O)[C@H](CCN)NC1=O)[C@@H](C)O [polymyxin B] (X1-[Dab]T[Dab][Dab][Dab][dF]L[Dab][Dab]T; lactam 4-C)
[1]; [5]
  AUCss, 24h: 62.1 (46.3, 83.2) mg·h/L
  Cmax,ss: 5.4 (4.6, 6.1) μg/mL
  Cmin,ss: 2.1 (1.6, 2.6) μg/mL
  Cmin,ss /MIC: 2.2 (1.6, 2.7)
[1]; [6]
  AUCss, 24h: 69.4 (58.5, 86.9) mg·h/L
  Cmax,ss: 6.5 (5.8, 7.2) μg/mL
  Cmin,ss: 2.2 (1.9, 2.5) μg/mL
  Cmin,ss /MIC: 2.2 (1.9, 2.5)
[1]; bootstrap method estimate
  CL (clearance in central compartment): 1.56 L/h
  CLd (clearance between central and peripheral compartment): 2.41 L/h
  Vc (volume distribution in central compartment): 12.5 L
  Vp (volume in peripheral compartment): 29.9 L
[1]; [7]
  AUCss, 24h: 60.6 (43.5, 66.6) mg·h/L
  Cmax,ss: 5.1 (3.7, 6.9) μg/mL
  Cmin,ss: 1.8 (1.0, 2.5) μg/mL
  Cmin,ss /MIC: 1.7 (0.9, 1.9)
[1]; [8]
  AUCss, 24h: 78.6 (62.4, 84.2) mg·h/L
  Cmax,ss: 6.8 (5.0, 7.6) μg/mL
  Cmin,ss: 2.4 (1.6, 2.8) μg/mL
  Cmin,ss /MIC: 2.4 (1.4, 3.1)
[1]; [9]
  CLd (clearance between central and peripheral compartment): 2.41 L/h
  Vc (volume distribution in central compartment): 12.5 L
  Vp (volume in peripheral compartment): 29.9 L
[1]; final model estimate, two-compartment population PK, 105 patients, 295 plasma concentrations, IV 100-200 mg loading then 40-100 mg every 12 h
  CL (clearance in central compartment): 1.56 L/h
[1]; [10]
  AUCss, 24h: 67.2 mg·h/L
  Cmax,ss (peak concentration at steady state): 5900 ng/mL
  Cmin,ss (trough concentration at steady state): 1900 ng/mL
CRO nosocomial pneumonia [2]; 51 patients with AUCss,24 h/MIC < 66.9, 95% CI 0.06-0.79, p = 0.022
  OR of combination of inhaled polymyxin B for clinical efficacy: 0.21
CRO nosocomial pneumonia [2]; 54 patients with AUCss,24 h/MIC ≥ 66.9, 95% CI 0.09-2.46, p = 0.365
  OR of combination of inhaled polymyxin B for clinical efficacy: 0.46
CRO nosocomial pneumonia [2]; Covariate-Adjusted Residuals method, 95% CI 0.38-1.01, p = 0.056
  AOR of dose normalized-AUCss,24 h/MIC for efficacy: 0.62
CRO nosocomial pneumonia [2]; IV + IH group, AUCss,24 h/MIC ≥ 66.9 (54 patients)
  clinical success rate: 90.0%
CRO nosocomial pneumonia [2]; IV group, AUCss,24 h/MIC < 66.9 (51 patients)
  clinical success rate: 35.1%
CRO nosocomial pneumonia [2]; IV group, AUCss,24 h/MIC ≥ 66.9 (54 patients)
  clinical success rate: 82.3%
CRO nosocomial pneumonia [2]; MIC mostly 1 mg/L
  favorable clinical outcomes in pneumonia patients with AUCss,24 h > 66.9: 85.2%
CRO nosocomial pneumonia [2]; ROC curve, largest Youden index, patients receiving combination therapy
  optimal cutoff point value of AUCss,24 h/MIC for clinical efficacy: 66.9
CRO nosocomial pneumonia [2]; all 105 patients (70/105), assessed at end of treatment, combination therapy with another antimicrobial
  clinical success rate: 66.7%
CRO nosocomial pneumonia [2]; intravenous plus inhaled (IV + IH) group, AUCss,24 h/MIC < 66.9 (51 patients)
  clinical success rate: 71.4%
CRO nosocomial pneumonia [2]; multivariate logistic regression, p = 0.009
  Adjusted OR (95% CI) of AUCss,24 h/MIC for clinical efficacy: 0.97 (0.95–0.99)
CRO nosocomial pneumonia [2]; multivariate logistic regression, p = 0.028, listed as PMB
  Adjusted OR (95% CI) of daily dose (mg) for clinical efficacy: 0.98 (0.97–0.99)
CRO nosocomial pneumonia [2]; multivariate logistic regression, p = 0.039, aerosol 25 or 50 mg twice daily, listed as PMB
  Adjusted OR (95% CI) of combination of inhaled polymyxin B for clinical efficacy: 0.32 (0.11–0.94)
CRO nosocomial pneumonia [3]
  HR (95% CI) of PMB treatment duration (day) for 30-day mortality: 0.67 (0.53-0.85)
[4]
  patients who cannot achieve AUCss,24 h values within the target therapeutic window: ~30%
